Experimental data: patent US20110071158A1, “NEW COMPOUNDS” (BOEHRINGER INGELHEIM INTERNATIONAL GMBH, priority 2009, published 2011)

Legend:
Format in all cases: biochemical
PTK2 enzyme [1] = molecular target: T1, PTK2 enzyme (Homo sapiens, UniProt Q05397); experiment: PTK2 enzyme test, Assay 2 (DELFIA, poly-Glu-Tyr substrate, antibody PT66); settings: Assay 2 (values marked *); 1 h pre-incubation, 0.5% DMSO
T1 construct: purchased Invitrogen PV3832
From the text: This test uses active PTK2 enzyme (Invitrogen Code PV3832) and poly-Glu-Tyr (4:1, Sigma P-0275) as the kinase substrate. The kinase activity is detected by means of the phosphorylation of the substrate in a DELFIA™ assay. The phosphorylated substrate is detected with the europium-labelled phosphotyrosine antibody PT66 (Perkin Elmer, No.: AD0040).
In order to determine concentration-activity curves with PTK2-inhibitors the compounds are serially diluted first of all in 10% DMSO/H2O and then in kinase dilution buffer (20 mM TRIS/HCl pH 7.5, 0.1 mM EDTA, 0.1 mM EGTA, 0.286 mM sodium orthovanadate, 10% glycerol with the addition of freshly prepared BSA (fraction V, 1 mg/mL) and DTT (1 mM)) and 10 μL of each dilution are dispensed per well in a 96-well microtitre plate (clear U-shaped base plate, Greiner No. 650101) (the inhibitors are tested in duplicates) and mixed with 10 μL/well of PTK2 kinase (0.01 μg/well). PTK2 kinase is diluted accordingly beforehand with kinase dilution buffer. The diluted PTK2 inhibitor and the PTK2 kinase are pre-incubated for 1 h at RT and shaken at 500 revolutions per min. Then 10 μL/well poly-Glu-Tyr substrate (25 μg/well poly-Glu-Tyr, 0.05 μg/well biotinylated poly-Glu-Tyr dissolved in 250 mM TRIS/HCl pH 7.5, 9 mM DTT) are added. The reaction is started by the addition of 20 μL of ATP Mix (30 mM TRIS/HCl pH 7.5, 0.02% Brij, 0.2 mM sodium orthovanadate, 10 mM magnesium acetate, 0.1 mM EGTA, 1× phosphatase inhibitor cocktail 1 (Sigma, No.: P2850), 50 μM ATP (Sigma, No.: A3377; 15 mM stock solution))—the final concentration of DMSO is 0.5%. After 1 h kinase reaction (the plates are shaken at 500 rpm), the reaction is stopped by the addition of 12 μL/well of 100 mM EDTA, pH 8, and shaken for a further 5 min at RT (500 U/min). 55 μL of the reaction mixture are transferred into a streptavidin plate (Strepta Well High Bind (transparent, 96-well) made by Roche, No.: 11989685001) and incubated for 1 h at RT (shaking at 500 rpm). Then the microtitre plate is washed five times with 200 μL/well D-PBS (Invitrogen, No. 14190). 100 μL of a solution containing DELFIA Eu-N1 Anti-Phosphotyrosine PT66 antibody (Perkin Elmer, No.: AD0040, diluted 1:9000 in DELFIA test buffer (Perkin Elmer, No.: 1244-111)) is then added and it is incubated for 1 h at RT (shaking at 500 rpm). Then the plate is washed five times with 200 μL/well DELFIA washing buffer (Perkin Elmer, No.: 1244-114), 200 μL/well strengthening solution (Perkin Elmer, No.: 1244-105) is added and the whole is incubated for 10 min at RT (shaking at 300 rpm).
The time-delayed europium fluorescence is then measured in a microtitre plate reader (Victor, Perkin Elmer). The positive control consists of wells that contain solvent (0.5% DMSO in test buffer) and display uninhibited kinase activity. Wells that contain test buffer instead of enzyme act as a control for the background kinase activity.
The IC50 values are determined from concentration-activity analyses by iterative calculation using a sigmoid curve analysis algorithm (FIFTY, based on Graph PAD Prism Version 3.03) with a variable Hill coefficient.

[2] = molecular target: T2, Xenopus laevis Aurora B/INCENP complex (Xenopus laevis, UniProt Q6DE08); experiment: Aurora-B kinase assay (radioactive enzyme inhibition)
T2 construct: equipped at the N-terminal position with a GST tag (amino acids 60-361); GST (N, cleaved yes); made in house; host or cells: E. coli BL21 (DE3)
From the text: A radioactive enzyme inhibition assay was developed using E. coli-expressed recombinant Xenopus laevis Aurora B wild-type protein equipped at the N-terminal position with a GST tag (amino acids 60-361) in a complex with Xenopus laevis INCENP (amino acids 790-847), which is obtained from bacteria and purified. In equivalent manner a Xenopus laevis Aurora B mutant (G96V) in a complex with Xenopus laevis INCENP^790-847 may also be used.
The coding sequence for Aurora-B^60-361 from Xenopus laevis is cloned into a modified version of pGEX-6T (Amersham Biotech) via BamHI and SalI cutting sites. The vector contains two cloning cassettes which are separated by a ribosomal binding site, allowing bi-cistronic expression. In this configuration Xenopus laevis Aurora B is expressed by the first cassette, and the Xenopus laevis INCENP^790-847 is expressed by the second cassette. The resulting vector is pAUB-IN^847.
First of all the E. coli strain BL21 (DE3) is co-transformed with pUBS520 helper plasmid and pAUB-IN^847, after which protein expression is induced using 0.3 mM IPTG at an OD600 of 0.45-0.7. The expression is then continued for approx. 12-16 h at 23-25° C. with agitation.
The bacteria are then removed by centrifuging and the pellet is lysed in lysis buffer (50 mM Tris/Cl pH 7.6, 300 mM NaCl, 1 mM DTT, 1 mM EDTA, 5% glycerol, Roche Complete Protease Inhibitor tablets) using ultrasound, using 20-30 mL lysis buffer per litre of E. coli culture. The lysed material is freed from debris by centrifugation (12000 rpm, 45-60 min, JA20 rotor). The supernatant is incubated with […] of equilibrated GST Sepharose Fast Flow (Amersham Biosciences) per litre of E. coli culture for 4-5 h at 4° C. Then the column material is washed with 30 volumes of lysis buffer and then equilibrated with 30 volumes of cleavage buffer (50 mM Tris/Cl pH 7.6, 150 mM NaCl, 1 mM DTT, 1 mM EDTA). To cleave the GST tag from Aurora B, 10 units of Prescission Protease (Amersham Biosciences) are used per milligram of substrate and the mixture is incubated for 16 h at 4° C. The supernatant which contains the cleavage product is loaded onto a 6 mL Resource Q column (Amersham Biosciences) equilibrated with ion exchange buffer (50 mM Tris/Cl pH 7.6, 150 mM NaCl, 1 mM DTT, 1 mM EDTA). The Aurora B/INCENP complex is caught as it flows through, then concentrated and loaded onto a Superdex 200 size exclusion chromatography (SEC) column equilibrated with SEC buffer (10 mM Tris/Cl pH 7.6, 150 mM NaCl, 1 mM DTT, 1 mM EDTA). Fractions which contain the AuroraB/INCENP complex are collected and concentrated using Vivaspin concentrators (molecular weight exclusion 3000-5000 Da) to a final concentration of 12 mg/mL. Aliquots (e.g. 240 ng/μL) for kinase assays are transferred from this stock solution into freezing buffer (50 mM Tris/Cl pH 8.0, 150 mM NaCl, 0.1 mM EDTA, 0.03% Brij-35, 10% glycerol, 1 mM DTT) and stored at −80° C.
Test substances are placed in a polypropylene dish (96 wells, Greiner #655 201), in order to cover a concentration frame of 10 μM-0.0001 μM. The final concentration of DMSO in the assay is 5%. 30 μL of protein mix (50 mM Tris/Cl pH 7.5, 25 mM MgCl2, 25 mM NaCl, 167 μM ATP, 10 ng Xenopus laevis Aurora B/INCENP complex in freezing buffer) are pipetted into the 10 μl of test substance provided in 25% DMSO and this is incubated for 15 min at RT. Then 10 μL of peptide mix (100 mM Tris/Cl pH 7.5, 50 mM MgCl2, 50 mM NaCl, 5 μM NaF, 5 μM DTT, 1 μCi gamma-P33-ATP [Amersham], 50 μM substrate peptide [biotin-EPLERRLSLVPDS or multimers thereof, or biotin-EPLERRLSLVPKM or multimers thereof, or biotin-[…]]) are added. The reaction is incubated for 75 min (ambient temperature) and stopped by the addition of 180 μL of 6.4% trichloroacetic acid and incubated for 20 min on ice. […]

PTK2 enzyme [3] = molecular target: T1, PTK2 enzyme; experiment: PTK2 enzyme test, Assay 1 (DELFIA, poly-Glu-Tyr substrate, antibody PT60); settings: Assay 1 (values without *); 1 h pre-incubation, 2% DMSO
How it was run: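 Active PTK2 (0.01 µg/well) preincubated 1 h at RT with compound (duplicates, 2% DMSO final), then reacted 1 h at RT with poly(Glu,Tyr) 4:1 plus biotinylated poly(Glu,Tyr) and an ATP mix containing 50 μM ATP. EDTA-stopped, streptavidin-captured product detected by Eu-PT60 anti-phosphotyrosine DELFIA; IC50 by variable-Hill sigmoid fit.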

T1 sequence (Q05397 whole entry): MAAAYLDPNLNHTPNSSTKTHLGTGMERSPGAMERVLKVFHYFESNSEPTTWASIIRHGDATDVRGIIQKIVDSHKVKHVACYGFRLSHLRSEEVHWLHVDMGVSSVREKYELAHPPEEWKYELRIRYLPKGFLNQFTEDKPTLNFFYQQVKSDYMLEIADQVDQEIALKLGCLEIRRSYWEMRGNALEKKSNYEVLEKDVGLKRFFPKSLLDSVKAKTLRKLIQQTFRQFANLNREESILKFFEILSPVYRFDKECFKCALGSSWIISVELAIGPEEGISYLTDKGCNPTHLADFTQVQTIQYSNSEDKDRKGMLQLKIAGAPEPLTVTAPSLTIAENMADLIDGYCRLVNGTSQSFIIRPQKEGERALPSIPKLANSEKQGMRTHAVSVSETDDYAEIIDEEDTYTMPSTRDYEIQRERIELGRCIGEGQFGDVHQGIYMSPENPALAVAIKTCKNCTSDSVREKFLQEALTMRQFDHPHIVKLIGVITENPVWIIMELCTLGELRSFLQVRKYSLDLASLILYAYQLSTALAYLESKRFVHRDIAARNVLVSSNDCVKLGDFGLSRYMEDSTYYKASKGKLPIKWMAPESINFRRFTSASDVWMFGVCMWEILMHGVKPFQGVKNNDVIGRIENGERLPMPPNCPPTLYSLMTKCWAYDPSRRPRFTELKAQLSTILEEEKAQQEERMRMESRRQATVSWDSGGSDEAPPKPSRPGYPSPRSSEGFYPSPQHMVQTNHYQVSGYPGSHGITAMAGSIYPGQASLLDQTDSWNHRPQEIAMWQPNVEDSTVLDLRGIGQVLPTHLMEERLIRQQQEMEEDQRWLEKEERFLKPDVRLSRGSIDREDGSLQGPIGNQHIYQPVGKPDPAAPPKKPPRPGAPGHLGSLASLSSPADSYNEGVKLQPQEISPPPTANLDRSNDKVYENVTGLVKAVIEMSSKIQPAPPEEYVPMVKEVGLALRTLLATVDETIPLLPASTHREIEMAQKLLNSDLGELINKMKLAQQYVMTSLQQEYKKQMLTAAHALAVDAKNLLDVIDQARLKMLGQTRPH
T2 sequence (Q6DE08 60-361): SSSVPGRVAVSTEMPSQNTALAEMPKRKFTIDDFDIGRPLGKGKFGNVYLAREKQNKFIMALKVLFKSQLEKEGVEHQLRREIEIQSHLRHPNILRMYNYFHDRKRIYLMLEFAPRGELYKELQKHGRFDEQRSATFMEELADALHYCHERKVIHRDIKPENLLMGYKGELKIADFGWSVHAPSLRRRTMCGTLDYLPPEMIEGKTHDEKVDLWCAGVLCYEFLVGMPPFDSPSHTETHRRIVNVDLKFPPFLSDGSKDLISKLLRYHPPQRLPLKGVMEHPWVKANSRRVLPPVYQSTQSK
T2 sequence (O13024 790-847 partner): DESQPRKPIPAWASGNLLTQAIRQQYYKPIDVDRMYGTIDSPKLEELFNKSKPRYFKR

| Structure (SMILES) | IC50 (PTK2 enzyme [1]) | IC50 [2] | IC50 (PTK2 enzyme [3]) |
| --- | --- | --- | --- |
| COc1ccc(C(=O)NCCN(C)C)cc1Nc1ncc(C(F)(F)F)c(N[C@@H]2CCCC[C@H]2N(C)S(C)(=O)=O)n1 [Example I-144] | 0.76 nM | > 9000 nM | – |
| COc1cc(C(=O)NC2CCN(C)CC2)ccc1Nc1ncc(C(F)(F)F)c(N[C@@H]2CCCC[C@H]2NS(C)(=O)=O)n1 [Example I-125, 4-[4-((1R,2R)-2-methanesulphonylamino-cyclohexylamino)-5-trifluoromethyl-pyrimidin-2-ylamino]-3-methoxy-N-(1-methyl-piperidin-4-yl)-benzamide] | – | 257 nM | 0.93 nM |
| COc1cc(C(=O)NC2CCOCC2)c(C)cc1Nc1ncc(C(F)(F)F)c(N[C@@H]2CCC[C@H]2NS(C)(=O)=O)n1 [Example I-195] | 0.32 nM | 641 nM | – |
| COc1cc(N2CCN(C(C)(C)C)CC2)c(C)cc1Nc1ncc(C(F)(F)F)c(N[C@@H]2CCC[C@H]2N(C)S(C)(=O)=O)n1 [Example I-140] | 0.86 nM | > 5000 nM | – |
| COc1cc(NC(=O)C2CCN(C)CC2)ccc1Nc1ncc(C(F)(F)F)c(N[C@@H]2CCCC[C@H]2N(C)S(C)(=O)=O)n1 [Example I-155] | 0.93 nM | 245 nM | – |
| COc1cc(C(=O)NC2CCN(C)CC2)c(Cl)cc1Nc1ncc(C(F)(F)F)c(N[C@@H]2CCCC[C@H]2N(C)S(C)(=O)=O)n1 [Example I-128] | – | > 5000 nM | 0.79 nM |
| COc1cc(C(=O)NC2CCN(C)CC2)c(C)cc1Nc1ncc(C(F)(F)F)c(N[C@@H]2CCCC[C@H]2N(C)S(C)(=O)=O)n1 [Example I-93] | – | 4040 nM | 0.86 nM |
| COc1cc(C(=O)NC2CCN(C)CC2)c(C)cc1Nc1ncc(Cl)c(N[C@@H]2CCCC[C@H]2N(C)S(C)(=O)=O)n1 [Example I-164] | – | 3360 nM | 1 nM |
| COc1cc(NC(C)=O)ccc1Nc1ncc(C(F)(F)F)c(N[C@@H]2CCCC[C@H]2N(C)S(C)(=O)=O)n1 [Example I-165] | – | 167 nM | 4 nM |
| CCN([C@@H]1CCCC[C@H]1Nc1nc(Nc2ccc(C(=O)NC3CCN(C)CC3)cc2OC)ncc1C(F)(F)F)S(C)(=O)=O [Example I-91] | – | 264 nM | 1 nM |
| COc1cc(CN2CCN(C)CC2)ccc1Nc1ncc(C(F)(F)F)c(N[C@@H]2CCCC[C@H]2N(C)S(C)(=O)=O)n1 [Example I-148] | – | 707 nM | 0.95 nM |
| COc1cc(CN(C)C)ccc1Nc1ncc(C(F)(F)F)c(N[C@@H]2CCCC[C@H]2N(C)S(C)(=O)=O)n1 [Example I-147] | – | 332 nM | 0.9 nM |
| COc1cc(C(=O)NC2CCN(C)CC2)ccc1Nc1ncc(C(F)(F)F)c(N[C@@H]2CCC[C@H]2NS(C)(=O)=O)n1 [Example I-126, 4-[4-((1R,2R)-2-methanesulphonylamino-cyclopentylamino)-5-trifluoromethyl-pyrimidin-2-ylamino]-3-methoxy-N-(1-methyl-piperidin-4-yl)-benzamide] | – | 265 nM | 0.9 nM |
| COCCNC(=O)c1cc(OC)c(Nc2ncc(C(F)(F)F)c(N[C@@H]3CCCC[C@H]3N(C)S(C)(=O)=O)n2)cc1C [Example I-133] | – | 2190 nM | 0.91 nM |
| COc1cc(C(=O)NC2CCN(C)CC2)ccc1Nc1ncc(C(F)(F)F)c(N[C@@H]2CCC[C@H]2N(C)S(C)(=O)=O)n1 [Example I-124, 4-{4-[(1R,2R)-2-(methanesulphonyl-methyl-amino)-cyclopentylamino]-5-trifluoromethyl-pyrimidin-2-ylamino}-3-methoxy-N-(1-methyl-piperidin-4-yl)-benzamide] | – | 241 nM | 0.81 nM |
| COc1cc(C(=O)NC2CCN(C)CC2)ccc1Nc1ncc(C(F)(F)F)c(N[C@@H]2CCCC[C@H]2N(C)S(C)(=O)=O)n1 [Example I-90, 4-{4-[(1R,2R)-2-(methanesulphonyl-methyl-amino)-cyclohexylamino]-5-trifluoromethyl-pyrimidin-2-ylamino}-3-methoxy-N-(1-methyl-piperidin-4-yl)-benzamide] | – | 280 nM | 0.8 nM |
| CNC(=O)c1cc(OC)c(Nc2ncc(C(F)(F)F)c(N[C@@H]3CCCC[C@H]3N(C)S(C)(=O)=O)n2)cc1Cl [Example I-135] | – | 1030 nM | 1 nM |
